The target of test [1] is T1, D-3-phosphoglycerate dehydrogenase (Homo sapiens) (UniProt O43175).
T1 sequence (whole entry): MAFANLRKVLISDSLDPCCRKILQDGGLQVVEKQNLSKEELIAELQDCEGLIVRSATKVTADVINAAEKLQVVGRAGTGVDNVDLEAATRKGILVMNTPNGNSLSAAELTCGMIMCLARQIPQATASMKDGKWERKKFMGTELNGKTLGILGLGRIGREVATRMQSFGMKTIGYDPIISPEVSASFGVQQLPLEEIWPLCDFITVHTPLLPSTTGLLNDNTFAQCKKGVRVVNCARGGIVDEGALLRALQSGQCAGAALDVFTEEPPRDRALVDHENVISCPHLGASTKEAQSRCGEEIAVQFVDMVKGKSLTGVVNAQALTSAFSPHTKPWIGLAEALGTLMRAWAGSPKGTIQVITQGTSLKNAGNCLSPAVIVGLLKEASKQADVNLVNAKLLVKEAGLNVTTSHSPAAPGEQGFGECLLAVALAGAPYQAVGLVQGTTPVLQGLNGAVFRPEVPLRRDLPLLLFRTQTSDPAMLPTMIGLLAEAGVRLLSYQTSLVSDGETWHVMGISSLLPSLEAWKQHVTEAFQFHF
Kind of test: Inhibition of N-terminal His6-tagged human liver PHGDH expressed in Escherichia coli Rosetta (DE3)pLysS at 57 uM using 3-phosphoglycerate as substrate after 20 mins in presence of NAD+ by resazurin fluorescence based PSAT1/diaphorase/PSPH coupled enzyme assay. For orientation: Alamar Blue is a resazurin reagent that responds to reducing activity.

For test [2], the target named is T2, D-3-phosphoglycerate dehydrogenase (Homo sapiens, UniProt O43175).
T2 sequence (O43175 whole entry): T1 sequence (whole entry)

In ChEMBL document CHEMBL4118111, “Discovery and optimization of piperazine-1-thiourea-based human phosphoglycerate dehydrogenase inhibitors” (Bioorg Med Chem, 2018) one finds Imax, inhibition and IC50 data, which are given here for 65 molecules.

pIC50: −log10 of the molar value.

`Cc1ccnc(N(C)C(=S)N2CCN(c3cccc(C(F)(F)F)c3)CC2)c1`: in test [1], the Imax was found to be 38%. As to `Cc1cc(C)nc(NC(=S)N2CCN(C(=O)c3ccc(C(F)(F)F)cc3)CC2)c1`, the inhibition (commonly the drop in the measured response relative to a control, in per cent) in test [1] was 85%. Moreover, the pIC50 (commonly −log10 of the IC50, conventionally taken in molar units) in test [2] was 4.72. On the same counts, the results for `Cc1cc(C)nc(NC(=S)N2CCCN(Cc3ccc(C(F)(F)F)cc3)CC2)c1` are 82% and 5.14. The corresponding values for `FC(F)(F)c1cccc(N2CCN(C(=S)Nc3cccnc3)CC2)c1` are 67% and 5.05. The corresponding values for `Cc1cc(C)nc(NC(=S)N2CCN(Cc3cccc(F)c3)CC2)c1` are 88% and 4.41. Turning to `Cc1cc(C)nc(NC(=S)N2CCN(C(=O)c3cccc(C(F)(F)F)c3)CC2)c1`, the inhibition in test [1] was found to be 101%. Moreover, the pIC50 in test [2] was 4.66. On the same counts, the results for `COc1cccc(CN2CCN(C(=S)Nc3cc(C)cc(C)n3)CC2)c1` are 94% and 4.52. The corresponding values for `Cc1cc(C)nc(NC(=S)N2CCN(Cc3ccccc3Cl)CC2)c1` are 106% and 4.70. For the molecule `Cc1cc(C)nc(NC(=S)N2CCN(Cc3ccncc3)CC2)c1`, the inhibition in test [1] was found to be 67%. Also, the pIC50 in test [2] was 4.23. The corresponding values for `Cc1cc(C)nc(NC(=S)N2CCC(NC(=O)c3ccc(C(F)(F)F)cc3)CC2)c1` are 90% and 5.00. On the same counts, the results for `COC(=O)c1ccnc(NC(=S)N2CCN(c3cccc(C(F)(F)F)c3)CC2)c1` are 73% and 4.89.

In the case of `Cc1cc(C)nc(NC(=S)N2CCC(NCc3ccc(C(F)(F)F)cc3)CC2)c1`, in test [1], the inhibition was 93%. The molecule also had a pIC50 in test [2] of 4.82.

As for `Cc1cc(C)nc(NC(=S)N2CCCC(NCc3ccc(C(F)(F)F)cc3)C2)c1` (stereo not drawn), the inhibition in test [1] is 89%. The molecule further had a pIC50 in test [2] of 4.92. The corresponding values for `Cc1ccc(CN2CCN(C(=S)Nc3cc(C)cc(C)n3)CC2)cc1` are 93% and 4.77. Take `Cc1ccnc(C(=S)N2CCN(c3cccc(C(F)(F)F)c3)CC2)c1`: in test [1], the Imax is 9%. In the case of `Cc1cc(C)nc(NC(=S)N2CCN(Cc3ccc(Br)cc3)CC2)c1`, the inhibition in test [1] was found to be 92%. Moreover, in test [2], the pIC50 was 4.77. The corresponding values for `Cc1cc(C)nc(NC(=S)N2CCN(Cc3ccc(C(F)(F)F)cc3)C(C)C2)c1` (stereo not drawn) are 99% and 5.08.

For `Cc1cc(C)nc(NC(=S)N2CCN(C(C)c3ccc(C(F)(F)F)cc3)CC2)c1` (stereo not drawn), in test [1], the inhibition was 90%. Moreover, the pIC50 in test [2] was 5.10. On the same counts, the results for `Cc1cc(C)nc(NC(=S)NCCNCc2ccc(C(F)(F)F)cc2)c1` are 41% and 5.01.

Take `Cc1cc(C)nc(NC(=S)NCCN(C)Cc2ccc(C(F)(F)F)cc2)c1`: in test [1], the inhibition turned out to be 66%. Besides, the pIC50 in test [2] is 4.68. For `Cc1cccc(CN2CCN(C(=S)Nc3cc(C)cc(C)n3)CC2)c1`, the inhibition in test [1] came to 92%. The molecule also had a pIC50 in test [2] of 4.70.

Turning to `Cc1cc(NC(=S)N2CCN(c3cccc(C(F)(F)F)c3)CC2)nc2ccccc12`, in test [1], the inhibition amounted to 119%. In test [2], this molecule had a pIC50 of 4.68. On the same counts, the results for `Cc1cc(C)nc(NC(=S)N2CCN(Cc3ccc(C(F)(F)F)cc3)C(CO)C2)c1` (stereo not drawn) are 89% and 5.24. With `Cc1cc(C)nc(NC(=S)N2CCCC(Nc3ccc(C(F)(F)F)cc3)C2)c1` (stereo not drawn), the inhibition in test [1] amounted to 85%. Also, the pIC50 in test [2] was 5.24. In the case of `COc1ccccc1N1CCN(C(=S)Nc2cc(C)cc(C)n2)CC1`, in test [1], the inhibition is 109%. Besides, the pIC50 in test [2] is 4.62. On the same counts, the results for `Cc1cc(C)nc(NC(=S)N2CC3CN(Cc4ccc(C(F)(F)F)cc4)CC3C2)c1` (stereo not drawn) are 93% and 4.80.

As to `Cc1cc(C)nc(NC(=S)N2CCN(Cc3ccccc3)CC2)c1`, the inhibition in test [1] was found to be 78%. In test [2], the pIC50 was 4.40. On the same counts, the results for `Cc1cc(C)nc(NC(=S)N2CCN(c3cccc(C(F)(F)F)n3)CC2)c1` are 100% and 4.96. In the case of `Cc1ccnc(NC(=S)N2CCN(c3cccc(C(F)(F)F)c3)CC2)c1`, in test [1], the inhibition stood at 92%. As to `FC(F)(F)c1cccc(N2CCN(C(=S)Nc3cc(C(F)(F)F)ccn3)CC2)c1`, in test [1], the inhibition was found to be 61%. In test [2], this molecule showed a pIC50 of 5.19. On the same counts, the results for `FC(F)(F)c1cccc(N2CCN(C(=S)Nc3ccc4ccccc4n3)CC2)c1` are 90% and 5.00. The corresponding values for `Cc1cc(C)nc(NC(=S)N2CCN(c3ccccc3C(F)(F)F)CC2)c1` are 101% and 5.06.

`Cc1cccc(NC(=S)N2CCN(c3cccc(C(F)(F)F)c3)CC2)c1`: the Imax in test [1] turned out to be 20%. With `Cc1cc(C)nc(NC(=S)N2CCN(c3ccccn3)CC2)c1`, the inhibition in test [1] was determined as 73%. The molecule also had a pIC50 in test [2] of 4.43. The corresponding values for `FC(F)(F)c1cccc(N2CCN(C(=S)Nc3ccncc3)CC2)c1` are 55% and 4.85. As for `Cc1cc(C)nc(NC(=S)N2CCN(Cc3cccnc3)CC2)c1`, the Imax in test [1] worked out at 34%.

Take `Cc1cc(C)nc(NC(=S)N2CCN(Cc3ccccc3C(F)(F)F)CC2)c1`: in test [1], the inhibition amounted to 92%. Further, the pIC50 in test [2] was 5.20. The corresponding values for `Cc1cc(C)nc(NC(=S)N2CCN(Cc3ccccc3C)CC2)c1` are 85% and 5.04. On the same counts, the results for `Cc1cc(C)nc(NC(=S)N2CCN(CCc3ccc(C(F)(F)F)cc3)CC2)c1` are 87% and 4.64. On the same counts, the results for `Cc1cc(C)nc(NC(=S)N2CCN(Cc3ccc(C(F)(F)F)cc3)[C@@H](C)C2)c1` are 86% and 5.00. For `Cc1cc(C)nc(NC(=S)N2CCC(Nc3ccc(C(F)(F)F)cc3)CC2)c1`, the inhibition in test [1] was determined as 97%. For the same molecule, the pIC50 in test [2] is 5.11. On the same counts, the results for `Cc1cc(C)nc(NC(=S)N2CCN(Cc3ccc(Cl)cc3)CC2)c1` are 97% and 4.82. For `Cc1cc(C)nc(NC(=S)N2CCCC(NC(=O)c3ccc(C(F)(F)F)cc3)C2)c1` (stereo not drawn), the inhibition in test [1] was 88%. This molecule also had a pIC50 in test [2] of 5.06.

Take `Cc1cc(C)nc(NC(=S)N2CCN(Cc3cccc(Cl)c3)CC2)c1`: in test [1], the inhibition turned out to be 90%. For the same molecule, the pIC50 in test [2] was 4.96. On the same counts, the results for `COc1ccc(CN2CCN(C(=S)Nc3cc(C)cc(C)n3)CC2)cc1` are 87% and 4.59. On to `Cc1ccnc(CC(=S)N2CCN(c3cccc(C(F)(F)F)c3)CC2)c1`, for which the Imax in test [1] was 37%. Consider `COc1ccc(N2CCN(C(=S)Nc3cc(C)cc(C)n3)CC2)cc1`, for which the inhibition in test [1] is 99%. This molecule had a pIC50 in test [2] of 4.80. On the same counts, the results for `Cc1cc(C)nc(NC(=S)N2CCC(Nc3cccc(C(F)(F)F)c3)CC2)c1` are 90% and 5.19. On the same counts, the results for `Cc1cc(C)nc(NC(=S)N2CCN(Cc3ccc(C(F)(F)F)cc3)C(c3ccccc3)C2)c1` (stereo not drawn) are 111% and 4.51. On the same counts, the results for `Cc1cc(C)nc(NC(=S)N2CCN(Cc3cccc(C(F)(F)F)c3)CC2)c1` are 102% and 5.28. In the case of `Cc1cc(C)nc(NC(=S)N2CCCC(NC(=O)c3cccc(C(F)(F)F)c3)C2)c1` (stereo not drawn), the inhibition in test [1] amounted to 91%. This molecule had a pIC50 in test [2] of 5.00. On the same counts, the results for `Cc1ccnc(NC(=S)N2CCN(c3cccc(C(F)(F)F)c3)CC2)n1` are 111% and 4.43.

In the case of `Cc1cc(C)nc(NC(=S)N2CCCC(Nc3cccc(C(F)(F)F)c3)C2)c1` (stereo not drawn), the inhibition in test [1] stood at 84%. The pIC50 in test [2] is 5.14. As for `Cc1cc(C)nc(NC(=S)N2CCN(Cc3ccc(C(F)(F)F)cc3)CC2)c1`, the inhibition in test [1] was 96%. Turning to `Cc1cc(C)nc(NC(=S)N2CCN(Cc3ccc(C(F)(F)F)cc3)C(C(=O)O)C2)c1` (stereo not drawn), the inhibition in test [1] turned out to be 93%. Moreover, in test [2], the pIC50 is 4.48. On the same counts, the results for `Cc1cc(C)nc(NC(=S)N2CCN(Cc3ccc(C(F)(F)F)cc3)[C@H](C)C2)c1` are 94% and 4.92. For `COc1ccccc1CN1CCN(C(=S)Nc2cc(C)cc(C)n2)CC1`, the Imax in test [1] amounted to 21%.

Turning to `Cc1ccnc(NC(=O)N2CCN(c3cccc(C(F)(F)F)c3)CC2)c1`, the Imax in test [1] is 16%. With `COc1cccc(N2CCN(C(=S)Nc3cc(C)cc(C)n3)CC2)c1`, the inhibition in test [1] worked out at 101%. Further, the pIC50 in test [2] is 4.85. As to `Cc1ccnc(NC(=N)N2CCN(c3cccc(C(F)(F)F)c3)CC2)c1`, the Imax in test [1] stood at 2%. In the case of `Cc1cc(C)nc(NC(=S)N2CCN(Cc3ccc(F)cc3)CC2)c1`, the inhibition in test [1] came out at 86%. Also, the pIC50 in test [2] is 4.42. As to `Cc1cc(C)nc(NC(=S)N2CCN(c3ccc(C(F)(F)F)cn3)CC2)c1`, the inhibition in test [1] was 96%. For `Cc1cc(C)nc(NC(=S)N2CCN(c3ccc(C(F)(F)F)cc3)CC2)c1`, the inhibition in test [1] came to 98%. Also, the pIC50 in test [2] was 5.37. Regarding `Cc1cc(C)nc(NC(=S)N2C[C@@H](C)N(Cc3ccc(C(F)(F)F)cc3)[C@@H](C)C2)c1`, the Imax in test [1] was 16%.

`Cc1cc(C)nc(NC(=S)N2CCN(c3cccnc3)CC2)c1`: the inhibition in test [1] came out at 68%. This molecule gave a negative-log IC50 (pIC50) in test [2] of 4.30.
